Experimental data published in patent publication US8445707B1, “Compound, composition and uses thereof” (Krisani Biosciences (P) Ltd., priority 2012, dated 2013).
Read-outs that look alike come from different tables or passages of the source. One block for each compound: values may come before it.

Assay: Pharmacokinetics of KB-ND-002 compared to Cysteamine Hydrochloride and EPA in mouse plasma and brain after oral administration
Type: in vivo, male mice
Details: for maximum concentration of Cysteamine after dosing compared to endogenous levels in control group animals: analyte Cysteamine
Method: Method of Treatment, Testing and Results Using the Final Compound of formula 1 at Charles River Labs: Pharmacokinetics of KB-ND-002 compared to Cysteamine Hydrochloride and EPA in Mouse Plasma and Brain
Parameter estimation was performed on mean plasma and brain Eicosapentanoiec acid, KB-ND-002 and Cysteamine concentration vs nominal sampling time values from 3 animals per timepoint. Parameter estimates were derived for each analyte, and matrix using a non-compartmental approach in WinNonlin Enterprise version 5.2.1 (Pharsight Corp., Mountain View, Calif., USA) in accordance with Charles River standard operating procedures. A WinNonlin regression analysis was performed with each concentration vs time profile reviewed by means of visual inspection to appropriately characterise the apparent terminal elimination phase and optimise the reliability of the lambda-z estimation.
Following Oral Administration of KB-ND-002 (Formula 1), Cysteamine or Eicosapentanoiec Acid in Male Mice, Concentration Vs Time Profiles were Partially Evaluable for PK Purposes.

systemic exposure to Cysteamine, comparison between groups (112 mg/kg Cysteamine administered): greatest | maximum concentration of Cysteamine after dosing compared to endogenous levels in control group animals (brain, oral, male mice): up to 10 fold | maximum concentration of Cysteamine after dosing compared to endogenous levels in control group animals (plasma, oral, male mice): over 400 fold | Tmax (male, mouse, brain, Group 4, 112 mg/kg Cysteamine oral, read-out: time of peak concentration of Cysteamine (Tmax)): 30 min | Tmax (male, mouse, plasma, Group 4, 112 mg/kg Cysteamine oral, read-out: time of peak concentration of Cysteamine (Tmax)): 4.8 min
SMILES: NCCS [Cysteamine]
Cysteamine concentrations quantifiable over sampling period (brain, sampling duration 5 h): quantifiable for the entire duration of sampling | Cysteamine concentrations observed over sampling period (plasma, only following administration of Cysteamine (Group 4)): only consistently observed for the entire duration of sampling

systemic exposure to Eicosapentanoiec acid, comparison between groups (112 mg/kg Eicosapentanoiec acid administered): greatest | maximum concentration of Eicosapentanoiec acid after dosing compared to endogenous levels in control group animals (analyte Eicosapentanoiec acid, plasma, oral, male mice): over 20 fold | Tmax (male, mouse, brain, Group 5, 112 mg/kg Eicosapentanoiec acid oral, read-out: time of peak concentration of Eicosapentanoiec acid (Tmax)): 60 min | Tmax (male, mouse, plasma, Group 5, 112 mg/kg Eicosapentanoiec acid oral, read-out: time of peak concentration of Eicosapentanoiec acid (Tmax)): 60 min
SMILES: CC/C=C\C/C=C\C/C=C\C/C=C\C/C=C\CCCC(=O)O [Eicosapentanoiec acid]
Eicosapentanoiec acid concentrations quantifiable over sampling period (plasma and brain, sampling duration 5 h): quantifiable for the entire duration of sampling

SMILES: CC/C=C\C/C=C\C/C=C\C/C=C\C/C=C/CCCC(=O)NCCSC(C)=O [KB-ND-002]
Kp (male, mouse, brain and plasma, oral, brain at highest dose vs plasma after low dose (60 mg/kg), read-out: systemic exposure to KB-ND-002 in brain relative to plasma): < 0.01 | dose proportionality based on dose normalised estimates of Cmax and AUC(0-t) (plasma, oral KB-ND-002): sub-proportional
